Data on 17 compounds can be found in ChEMBL document CHEMBL1121683, “Novel synthesis of (S)-1-[5-(benzoylamino)-1,4-dioxo-6-phenylhexyl]-L-proline and analogues: potent angiotensin converting enzyme inhibitors” (J Med Chem, 1981).

Assay [1] has as its system Rattus norvegicus. The experiment in a line: Change in mean aortic blood pressure in the conscious renal hypertensive rat after oral administration of 30 mg/kg. It counts as functional, Artery.
Assay [2] relates to Rattus norvegicus. The experiment in a line: Maximum effect of 30 mg/kg administered orally on mean aortic blood pressure in the conscious renal hypertensive rat. The note with it: route oral. It counts as functional, Artery.
Assay [3] has as its system Rattus norvegicus. Put plainly: Maximum inhibition of the angiotensin I challenge at 30mg/kg, po in conscious, normotensive rats. It counts as functional.
The subject of assay [4] is Rattus norvegicus. The experiment in a line: Time required after administration of 30 mg/kg of compound po, for the AI response to return to 70% of the pretreatment control response. Type of assay: functional.
Assay [5] deals with Rattus norvegicus. Put plainly: Time required after administration of 3 mg/kg of compound iv, for the AI response to return to 70% of the pretreatment control response. Type of assay: functional.
Assay [6] has as its system Rattus norvegicus. Put plainly: Maximum inhibition of the angiotensin I challenge at 3 mg/kg, iv, in conscious, normotensive rats. It counts as functional.
For assay [7], the system named is Rattus norvegicus. The experiment in a line: Change in mean aortic blood pressure in the conscious renal hypertensive rat after oral administration of 3 mg/kg. It counts as functional, Artery.
The subject of assay [8] is Rattus norvegicus. The experiment in a line: Maximum effect of 3 mg/kg of compound administered orally on mean aortic blood pressure in the conscious renal hypertensive rat. It counts as functional, Artery. The note with it: route oral.
The target in assay [9] is Angiotensin-converting enzyme (Homo sapiens, UniProt P12821). Put plainly: Concentration required to inhibit the activity of Angiotensin I converting enzyme by 50%. Type of assay: protein assay, Cavia porcellus.
Sequence of Angiotensin-converting enzyme (P12821 whole entry): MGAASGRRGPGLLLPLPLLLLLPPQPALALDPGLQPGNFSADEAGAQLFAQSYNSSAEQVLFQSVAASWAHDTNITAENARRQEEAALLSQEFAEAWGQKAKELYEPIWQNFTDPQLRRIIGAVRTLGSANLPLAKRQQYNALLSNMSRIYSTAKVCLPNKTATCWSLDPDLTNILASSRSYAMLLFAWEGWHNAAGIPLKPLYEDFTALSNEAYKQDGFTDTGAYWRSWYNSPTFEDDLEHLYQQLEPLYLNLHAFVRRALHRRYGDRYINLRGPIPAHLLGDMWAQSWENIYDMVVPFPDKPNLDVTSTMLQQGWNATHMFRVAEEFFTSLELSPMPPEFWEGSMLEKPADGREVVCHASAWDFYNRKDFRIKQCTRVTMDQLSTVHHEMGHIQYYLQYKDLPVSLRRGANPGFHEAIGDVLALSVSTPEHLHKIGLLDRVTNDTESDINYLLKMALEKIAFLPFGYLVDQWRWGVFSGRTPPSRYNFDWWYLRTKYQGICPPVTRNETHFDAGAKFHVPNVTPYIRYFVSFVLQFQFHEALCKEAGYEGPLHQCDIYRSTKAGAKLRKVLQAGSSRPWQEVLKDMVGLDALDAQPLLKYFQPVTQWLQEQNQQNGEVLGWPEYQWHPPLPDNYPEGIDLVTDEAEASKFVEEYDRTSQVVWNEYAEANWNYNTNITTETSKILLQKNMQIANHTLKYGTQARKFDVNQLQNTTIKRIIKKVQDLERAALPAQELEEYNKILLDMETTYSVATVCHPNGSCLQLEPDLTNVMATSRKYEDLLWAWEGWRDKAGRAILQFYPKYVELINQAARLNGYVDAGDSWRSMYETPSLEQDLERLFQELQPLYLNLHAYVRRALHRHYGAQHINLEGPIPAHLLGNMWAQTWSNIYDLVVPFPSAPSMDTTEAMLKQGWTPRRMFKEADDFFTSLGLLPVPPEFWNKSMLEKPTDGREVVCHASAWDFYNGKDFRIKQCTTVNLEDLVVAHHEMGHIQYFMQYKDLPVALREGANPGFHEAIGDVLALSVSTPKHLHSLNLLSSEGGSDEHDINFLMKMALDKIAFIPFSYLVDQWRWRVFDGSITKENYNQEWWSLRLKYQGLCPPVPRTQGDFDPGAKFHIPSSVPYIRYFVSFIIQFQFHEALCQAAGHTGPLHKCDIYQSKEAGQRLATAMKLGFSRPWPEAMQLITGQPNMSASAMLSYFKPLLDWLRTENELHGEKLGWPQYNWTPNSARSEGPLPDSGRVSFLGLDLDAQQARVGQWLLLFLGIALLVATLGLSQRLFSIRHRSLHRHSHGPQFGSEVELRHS
In assay [10] the test system is Rattus norvegicus. The experiment in a line: Time required after administration of 0.3 mg/kg of compound po, for the AI response to return to 70% of the pretreatment control response. It counts as functional.
The test system of assay [11] is Rattus norvegicus. Put plainly: Maximum inhibition of the angiotensin I challenge at 3 mg/kg, po, in conscious, normotensive rats. It counts as functional.
The test system of assay [12] is Rattus norvegicus. The experiment in a line: Maximum effect of 0.3 mg/kg of compound administered orally on mean aortic blood pressure in the conscious renal hypertensive rat. It counts as functional, Artery. Particulars: route oral; call rule not given here.
The subject of assay [13] is Rattus norvegicus. The experiment in a line: Time required after administration of 3 mg/kg of compound po, for the AI response to return to 70% of the pretreatment control response. Type of assay: functional.
Assay [14] deals with Rattus norvegicus. Put plainly: Maximum inhibition of the angiotensin I challenge at 0.3 mg/kg, po, in conscious, normotensive rats. Type of assay: functional.
Assay [15] relates to Rattus norvegicus. Put plainly: Time required after administration of 0.03 mg/kg of compound po, for the AI response to return to 70% of the pretreatment control response. It counts as functional.
Assay [16] deals with Rattus norvegicus. Put plainly: Maximum inhibition of the angiotensin I challenge at 0.03 mg/kg, po, in conscious, normotensive rats. Type of assay: functional.
For assay [17], the system named is Rattus norvegicus. Put plainly: Change in mean aortic blood pressure in the conscious renal hypertensive rat after oral administration of 0.3 mg/kg. Type of assay: functional, Artery.

In [1], `O=C(NC(Cc1cccnc1)C(=O)CCC(=O)N1CCC[C@H]1C(=O)OCc1ccccc1)c1ccccc1` (some centres undefined) yielded a Change of -32 mmHg. In addition, the “Mean aortic blood pressure at maximum effect” value (shortened to “Mean aortic blood pressure”) in [2] is listed as 159 mmHg.
In the case of `O=C(NC(Cc1ccccc1)C(=O)CCC(=O)N1CCC[C@H]1C(=O)O)c1ccco1` (some centres undefined), the Change in [1] is recorded as -1 mmHg. Further, the Max inhibition came out at 32% in assay [3] and 84% in [6]. Also, the AI recovery time in assay [4] is 84 min; in [5], 52 min. Besides, the “Mean aortic blood pressure” value in assay [2] turned out to be 184 mmHg.
On to `O=C(NC(Cc1ccccc1)C(=O)CCC(=O)N1CC(O)C[C@H]1C(=O)O)c1ccccc1` (some centres undefined), for which the Change in assay [1] is recorded as -20 mmHg. Besides, the “Mean aortic blood pressure” value in assay [2] is reported as 168 mmHg.
As to `O=C(NC(Cc1ccc(OCc2ccccc2)cc1)C(=O)CCC(=O)N1CCC[C@H]1C(=O)O)c1ccccc1` (some centres undefined), in assay [1], the Change is recorded as -5 mmHg. The “Mean aortic blood pressure” value in assay [2] is reported as 195 mmHg.
Consider `CC(=O)NC(Cc1ccccc1)C(=O)CCC(=O)N1CCC[C@H]1C(=O)O` (some centres undefined), for which the Change in [1] is on record as -26 mmHg. In addition, the “Mean aortic blood pressure” value in [2] is listed as 176 mmHg.
The like results for `Cc1ccccc1C(=O)NC(Cc1ccccc1)C(=O)CCC(=O)N1CCC[C@H]1C(=O)O` (some centres undefined) were, in that order, -15 mmHg and 188 mmHg.
As to `O=C(NC(Cc1ccc(O)cc1)C(=O)CCC(=O)N1CCC[C@H]1C(=O)O)c1ccccc1` (some centres undefined), the Change in assay [1] is recorded as -23 mmHg. For the same compound, the figures for the Max inhibition in assay [3] and in assay [6] were 46% and 82%, respectively. The AI recovery time in assay [4] was determined as 24 min; in [5], 34 min. For the same compound, the “Mean aortic blood pressure” value in assay [2] is listed as 172 mmHg.
Compound `COc1ccc(CC(NC(=O)c2ccccc2)C(=O)CCC(=O)N2CCC[C@H]2C(=O)O)cc1OC` (some centres undefined) registered a Change in assay [1] of -5 mmHg. Further, the Max inhibition came to 33% in assay [3] and 74% in assay [6]. The results for the AI recovery time in [4] and in [5] were 5 min and 24 min, respectively. Besides, in [2], the “Mean aortic blood pressure” value came out at 174 mmHg.
In assay [1], `O=C(NC(Cc1cccnc1)C(=O)CCC(=O)N1CCC[C@H]1C(=O)O)c1ccccc1` (some centres undefined) yielded a Change of -20 mmHg. The “Mean aortic blood pressure” value in assay [2] stood at 184 mmHg.
For `Cc1ccccc1C(=O)NC(Cc1ccccc1)C(=O)CCC(=O)N1CCC[C@H]1C(=O)OCc1ccccc1` (some centres undefined), in that order: -20 mmHg and 175 mmHg.
Consider `O=C(NC(Cc1ccccc1)C(=O)CCC(=O)N1CCC[C@H]1C(=O)O)OCc1ccccc1` (some centres undefined), for which the Change in [1] is -22 mmHg. The “Mean aortic blood pressure” value in [2] is 175 mmHg.
Take `COC(=O)[C@@H]1CCCN1C(=O)CCC(=O)C(Cc1ccccc1)NC(=O)c1ccccc1` (some centres undefined): the Change in assay [1] was -11 mmHg; in assay [7] it was -34 mmHg. The Max effect in assay [8] is on record as 165 mmHg. The “Mean aortic blood pressure” value in assay [2] was 142 mmHg.
For the compound `O=C(NC(Cc1ccccc1)C(=O)CCC(=O)N1CCCC1)c1ccccc1` (centres undefined), in [9], the IC50 result was “Not Active”.
In assay [1], `O=C(CCC(=O)N1CCC[C@H]1C(=O)O)C(Cc1ccccc1)NC(=O)C1CCCO1` (some centres undefined) showed a Change of -23 mmHg. Moreover, the figures for the Max inhibition in assay [3] and in assay [6] were 24% and 64%, respectively. In assay [4], the AI recovery time is recorded as 10 min. Moreover, the “Mean aortic blood pressure” value in assay [2] was 163 mmHg.
Compound `O=C(CCC(=O)C(Cc1ccccc1)NC(=O)c1ccccc1)NC(Cc1ccccc1)C(=O)OCc1ccccc1` (centres undefined) returned a Change in assay [1] of -5 mmHg. Also, the “Mean aortic blood pressure” value in assay [2] amounted to 182 mmHg.
As for `O=C(N[C@@H](Cc1ccccc1)C(=O)CCC(=O)N1CCC[C@H]1C(=O)O)c1ccccc1`, the Change in [1] is recorded as -12 mmHg. The Max inhibition was found to be 48% in [3] and 57% in [6]. Also, the AI recovery time in assay [4] was determined as 49 min; in [5] it was 34 min. Further, the “Mean aortic blood pressure” value in [2] was determined as 178 mmHg.
Consider `C[C@H](CS)C(=O)N1CCC[C@H]1C(=O)O` [CAPTOPRIL], for which the AI recovery time was 170 min in assay [10], more than 240 min in assay [13] and 80 min in assay [15]. Further, the Change was -101 mmHg in [1], -93 mmHg in assay [7] and -19 mmHg in [17]. In addition, the values for the Max inhibition in assay [11], in assay [14] and in assay [16] were 95%, 69% and 16%, respectively. In addition, the Max effect amounted to 170 mmHg in assay [12] and 99 mmHg in assay [8]. For the same compound, the “Mean aortic blood pressure” value in assay [2] stood at 85 mmHg.
